Reference: PMC8113213, “Physiologically based kinetic modelling based prediction of in vivo rat and human acetylcholinesterase (AChE) inhibition upon exposure to diazinon” (Archives of Toxicology, 2021)
Where two headings read alike, the source gives them in different places.

Assays:
[1] = human; ref Garfitt et al. 2002; Poet et al. 2004; cited from earlier work
[2] = rat; ref Poet et al. 2004; cited from earlier work
[3] = Unbound fraction in the in vitro medium by rapid equilibrium dialysis (RED); type: in vitro ADME
Experimental: To assess whether this assumption is reasonable, the fuDZOin vitro was determined. This was done using rapid equilibrium dialysis (RED) performed in line with the manufacturer’s protocol (Thermo Fisher Scientific [2012]). […] The whole device was then incubated for 5 h at 37℃ on a shaker at 250 rmp to reach equilibrium. Then 50 µl of post-incubation sample were separately collected from the sample and buffer chambers into the corresponding Eppendorf tubes. After this 50 µl of PBS buffer was added to the sample taken from the sample chamber and 50 µl of in vitro medium was added to the sample taken from buffer chamber and subsequently 300 µl ice-cold 90% acetonitrile (ACN/water, v/v) were added to both samples to precipitate the protein. All samples were put on ice for 30 min, followed by centrifugation for 30 min at 15,000g. The supernatants were collected for LC–MS/MS analysis of the amount of DZO.

[4] = target: T1, recombinant human AChE (rhAChE) (Homo sapiens, UniProt P22303); test: biochemical
T1 construct: purchased Sigma-Aldrich Co
Experimental: (§1) However, since recombinant rat AChE was not commercially available, extracted rat RBC AChE was used. […] The concentration of DTNB was calculated based on the concentration ratio (ATC/DTNB) of 2 (Stern et al. [2014]). […] To initiate the inhibition reaction, 1 µl rhAChE or rat AChE (final concentration 0.6 mU/ml) was added to the incubation. The total incubation volume was 50 µl. After 15 min incubation at 37℃, 150 µl reaction reagents (mixture of ATC at a final concentration of 150 µM and DTNB at a final concentration of 75 µM) were added into each well. The final total volume of each well was 200 µl. Subsequently, the 96-well plate was measured continuously for 10 min at absorbance 412 nm at 37℃ to quantify the remaining AChE activity.
(§2) The rhAChE and rat AChE activity were expressed as the remaining AChE activity relative to solvent control (100% activity) and positive control (0% activity) based on Eq. (2):2 AChEactivity\%=A412t10-t0testcompound-A412t10-t0positivecontrol/A412t10-t0solventcontrol-A412t10-t0positivecontrol×100\% , where the A412(t10 − t0)test compound is the change in the absorbance at A412 nm between 0 and 10 min for the test compound, the A412(t10 − t0)positive control is the change in the absorbance at A412 nm between 0 and 10 min for the CPO sample, and the A412(t10 − t0)solvent control is the change in the absorbance at A412nm between 0 and 10 min for the 0.2% ethanol sample.

PON1 [5] = target: T2, PON1 (Rattus norvegicus, UniProt P55159); test: in vitro; type: in vitro ADME; set-up: 1 µl of human or rat liver microsomes (final concentration 0.1 mg microsomal protein/ml); tissue Corning; host or cells: rat liver microsomes (Sprague–Dawley, male); conditions: for Km: pH 7.4
Experimental: (§3) Preliminary studies were carried to optimize and select the incubation conditions with respect to linearity for both incubation time and microsomal/plasma protein concentration (data not shown). […] After 1 min preincubation in a 37 °C water bath, 1 µl of human or rat liver microsomes (final concentration 0.1 mg microsomal protein/ml), or 1 µl of human or rat plasma (final concentration 0.385 mg plasma protein/ml for human plasma and 0.300 mg plasma protein/ml for rat plasma) was added to initiate the reaction. The total incubation mixture was 200 µl. Control incubations were carried out by replacing liver microsomes or plasma with buffer. The reaction was terminated after 1 min incubation (human samples) or 2 min incubation (rat samples) by adding 200 µl ice-cold ACN. Subsequently, samples were centrifuged at 16000 g (4℃) for 5 min, and supernatants were further diluted (30 × for liver sample and 40 × for plasma sample) in a mixture of ACN and 50 mM Tris–HCl (pH 7.4) (ratio 1:1, v/v) before analysis by LC–MS/MS for quantification of metabolite formation.
(§4) The chromatographic separations were conducted on a Kinetex® 1.7 µm Phenyl-Hexyl 100 Å LC column (100 × 2.1 mm). The injection volume was 1 µl at a flow rate of 0.3 ml/min. The temperature of the column was kept at 40℃. The mobile phase A consisted of ultrapure water with 0.1% (v/v) formic acid, and mobile phase B consisted of acetonitrile (ACN) with 0.1% (v/v) formic acid. […] The instrument was used in positive mode with multiple reaction monitoring (MRM). The optimized acquisition parameters for DZN, DZO and the metabolite IMHP are listed in Supplementary data I.
(§5) The calculation was done using GraphPad Prism 5 for Windows, version 5.04 (GraphPad software, San Diego California USA).

rat RBC AChE = target: T3, rat RBC AChE (Rattus norvegicus, UniProt P37136); test: In vitro AChE inhibition assay (Ellman) with extracted rat RBC AChE; type: biochemical; conditions: rat; IC50 DZO/IC50 DZN, TEF of DZO set at 1.0
T3 construct: the membrane fraction (containing AChE) was sedimented by centrifugation at 20,000g for 40 min; tissue BioIVT; host or cells: rat red blood cell membranes (from whole blood)
Experimental: as §1, §2

PON1 [6] = target: T4, PON1 (Homo sapiens, UniProt P27169); test: in vitro; type: in vitro ADME; conditions: for Km: pH 7.4
T4 construct: 1 µl of human or rat liver microsomes (final concentration 0.1 mg microsomal protein/ml); tissue Corning; host or cells: human liver microsomes, pooled from 20 donors
Experimental: as §3, §4, §5

PON1 [7] = target: T2, PON1; conditions: ref Makhaeva et al. 2009; cited from earlier work

T2 sequence (P55159 whole entry): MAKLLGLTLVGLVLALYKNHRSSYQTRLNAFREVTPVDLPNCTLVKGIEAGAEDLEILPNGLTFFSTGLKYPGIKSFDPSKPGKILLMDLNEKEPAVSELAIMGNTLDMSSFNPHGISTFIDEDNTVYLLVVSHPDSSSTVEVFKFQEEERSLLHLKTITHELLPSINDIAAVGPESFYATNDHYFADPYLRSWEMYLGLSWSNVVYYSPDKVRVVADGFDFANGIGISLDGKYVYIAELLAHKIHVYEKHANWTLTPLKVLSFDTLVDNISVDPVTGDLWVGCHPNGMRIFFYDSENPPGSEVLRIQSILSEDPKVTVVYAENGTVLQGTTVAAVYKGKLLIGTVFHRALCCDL
T4 sequence (P27169 whole entry): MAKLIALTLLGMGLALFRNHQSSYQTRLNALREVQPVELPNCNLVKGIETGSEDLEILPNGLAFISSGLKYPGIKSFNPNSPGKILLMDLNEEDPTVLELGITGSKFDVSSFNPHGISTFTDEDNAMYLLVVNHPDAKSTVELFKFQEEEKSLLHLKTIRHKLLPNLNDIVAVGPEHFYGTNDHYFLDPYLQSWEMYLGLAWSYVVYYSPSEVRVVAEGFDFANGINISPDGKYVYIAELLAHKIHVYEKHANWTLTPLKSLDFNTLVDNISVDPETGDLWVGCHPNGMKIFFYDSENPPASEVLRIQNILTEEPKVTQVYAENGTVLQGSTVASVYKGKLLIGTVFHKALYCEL
T1 sequence (P22303 32-614): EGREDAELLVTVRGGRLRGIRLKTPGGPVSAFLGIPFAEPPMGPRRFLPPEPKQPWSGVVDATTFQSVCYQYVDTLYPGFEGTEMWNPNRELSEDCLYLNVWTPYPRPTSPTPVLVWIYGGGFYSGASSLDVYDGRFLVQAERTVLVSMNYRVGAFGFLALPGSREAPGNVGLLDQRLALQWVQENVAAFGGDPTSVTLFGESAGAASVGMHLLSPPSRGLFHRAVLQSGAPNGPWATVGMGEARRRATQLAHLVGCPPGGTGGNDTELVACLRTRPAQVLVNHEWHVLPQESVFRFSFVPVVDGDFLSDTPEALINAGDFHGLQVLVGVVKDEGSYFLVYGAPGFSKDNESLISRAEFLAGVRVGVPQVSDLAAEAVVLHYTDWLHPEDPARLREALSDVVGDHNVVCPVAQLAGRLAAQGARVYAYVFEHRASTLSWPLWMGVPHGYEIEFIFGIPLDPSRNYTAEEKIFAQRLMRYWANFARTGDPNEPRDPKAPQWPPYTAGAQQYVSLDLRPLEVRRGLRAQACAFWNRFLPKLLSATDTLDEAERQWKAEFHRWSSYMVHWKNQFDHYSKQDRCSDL
T3 sequence (P37136 other isoform, or with tags, fused parts or gaps): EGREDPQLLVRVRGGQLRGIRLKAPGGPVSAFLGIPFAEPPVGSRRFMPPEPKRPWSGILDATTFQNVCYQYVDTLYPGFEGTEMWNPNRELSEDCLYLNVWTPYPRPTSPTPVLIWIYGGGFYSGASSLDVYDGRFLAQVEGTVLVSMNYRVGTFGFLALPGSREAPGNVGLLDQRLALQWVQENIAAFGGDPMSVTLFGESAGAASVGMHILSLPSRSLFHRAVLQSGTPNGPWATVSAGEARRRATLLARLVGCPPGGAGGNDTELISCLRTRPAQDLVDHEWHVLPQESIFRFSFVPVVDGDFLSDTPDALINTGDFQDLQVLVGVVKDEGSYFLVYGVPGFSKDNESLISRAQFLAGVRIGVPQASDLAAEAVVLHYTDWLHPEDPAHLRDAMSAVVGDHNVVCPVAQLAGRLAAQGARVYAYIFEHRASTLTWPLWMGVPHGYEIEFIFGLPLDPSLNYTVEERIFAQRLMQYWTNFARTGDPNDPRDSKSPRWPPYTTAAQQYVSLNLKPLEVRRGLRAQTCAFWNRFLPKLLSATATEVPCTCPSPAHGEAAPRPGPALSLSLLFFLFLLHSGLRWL

CCOP(=O)(O)OCC [DEP, diethylphosphate]
Ke, elimination into the urine [1]: 12 h⁻¹ | Ke, elimination into the urine [2]: 0.29 h⁻¹

CCOP(O)(=S)OCC [DETP, diethylthiophosphate]
Ke, elimination into the urine [1]: 12 h⁻¹ | Ke, elimination into the urine [2]: 0.29 h⁻¹

CCOP(=O)(OCC)Oc1cc(C)nc(C(C)C)n1 [DZO, Diazoxon]
recovery at 5 h, 0.05 µM ([3]; in vitro medium in a RED insert device, read-out: recovery rate of post-dialysis in the in vitro medium): 74% | fraction unbound at 5 h, 0.05 µM ([3]; in vitro medium with 0.1 mg/ml BSA, read-out: unbound fraction in the in vitro medium (fu in vitro)): 0.96 | toxic equivalency factor (TEF) ([4]; human, IC50 DZO/IC50 DZN, TEF of DZO set at 1.0): 1.0 | IC50 ([4]; rhAChE, 15 min incubation at 37℃, read-out: IC50 for inhibition of AChE activity): 44 nM | Km (PON1 [5]; rat liver microsomes): 668 µM | Km (PON1 [5]; rat plasma): 536 µM | Vmax DZO to IMHP, liver (PON1 [5]; rat liver microsomes): 691.100 nmol/min/mg microsomal protein | Vmax DZO to IMHP, plasma (PON1 [5]; rat plasma): 431.400 nmol/min/mg plasma protein | PON1-mediated conversion of DZO faster in rat liver than in human liver (PON1 [5]; rat versus human liver): 10.7 fold | higher Vmax of PON1-mediated conversion in rat liver (PON1 [5]; rat versus human liver): 12.9 fold | PON1-mediated conversion of DZO faster in rat plasma than in human plasma (PON1 [5]; rat versus human plasma): 4.5 fold | higher Vmax of PON1-mediated conversion in rat plasma (PON1 [5]; rat versus human plasma): 3.5 fold | toxic equivalency factor (TEF) (rat RBC AChE): 1.0 | Vmax DZO to IMHP, plasma (PON1 [6]): 124.000 nmol/min/mg plasma protein | Vmax DZO to IMHP, liver (PON1 [6]; human liver microsomes): 53.490 nmol/min/mg microsomal protein | Km (PON1 [6]; human liver microsomes): 557 µM | Km (PON1 [6]; human plasma): 701 µM

Cc1cc(=O)nc(C(C)C)[nH]1 [IMHP, 2-isopropyl-4-methyl-6-hydroxypyrimidine]
Ke, elimination into the urine [1]: 12 h⁻¹ | Ke, elimination into the urine [2]: 0.29 h⁻¹

CCOP(=O)(OCC)Oc1ccc([N+](=O)[O-])cc1 [paraoxon]
faster PON1-mediated hydrolysis by rat than human plasma samples (PON1 [7]): approximately 4 fold
